Earlier results on one molecule are cited in US12702690B2, “Cannabinoid compositions and dosage forms for intranasal or inhalational delivery” (RHODES TECHNOLOGIES, priority 2020, dated 2026).

For series [1] the following is noted: background statement.
For series [2] the following is noted: following ingestion; Sharma et al. 2012.

As for `CCCCCc1cc(O)c2c(c1)OC(C)(C)C1CCC(C)=CC21` (single isomer, unassigned; (-)) [Dronabinol, (−)-trans-Δ^9-tetrahydrocannabinol], in series [1], the solubility in water entry was “insoluble in water”. In addition, the “time at which systemic absorption peaks” value in series [2] was 1 to 2 h.
